Calls of active or inactive are those of the source. No cut-off for these calls is given here.
Key:
MDA-MB-231 [1] = assay: Inhibition of colony formation in human MDA-MB-231 cells assessed as reduction in colony number at >=111 nM incubated for 10 days by crystal violet staining based analysis relative to control; format: functional; details: time 10 day
[2] = Cytotoxicity against human MCF-10A cells assessed as inhibition of cell growth incubated for 72 hrs by MTT assay; format: toxicity, cell-based
[3] = Toxicity in mouse assessed as increase in body weight at 62.5 to 500 mg/kg, ip administered for 16 days; format: organism-based; details: in vivo, 384 h, dose 62.5-500 mg/kg, time 16 day
[4] = MRT (0 to t) in Sprague-Dawley rat at 50 mg/kg, ip measured afer 24 hrs by LC-MS/MS analysis; format: ADME, organism-based; details: in vivo
[5] = Toxicity in athymic BALB/c mouse implanted with mouse 4T1 cells assessed as liver tissue damage at 12.5 to 25 mg/kg, ip administered for 14 days; format: organism-based; details: in vivo, 336 h, dose 12.5-25 mg/kg, time 14 day
[6] = Toxicity in athymic BALB/c mouse implanted with mouse 4T1 cells assessed as spleen tissue damage at 12.5 to 25 mg/kg, ip administered for 14 days; format: organism-based; details: in vivo, 336 h, dose 12.5-25 mg/kg, time 14 day
MDA-MB-231 [7] = assay: Inhibition of colony formation in human MDA-MB-231 cells at 20 nM incubated for 10 days by crystal violet staining based analysis; format: functional, cell-based; details: time 10.0 day
MDA-MB-231 [8] = assay: Induction of apoptosis in human MDA-MB-231 cells assessed as late apoptotic cells at 1000 nM incubated for 72 hrs by Annexin V-FITC/PI staining based flow cytometry analysis (reference value: 4.04 %); format: functional
[9] = AUC (0 to t) in Sprague-Dawley rat at 50 mg/kg, ip measured afer 24 hrs by LC-MS/MS analysis; format: ADME, organism-based; details: in vivo
MDA-MB-231 [10] = assay: Induction of apoptosis in human MDA-MB-231 cells transfected with shCDK9 assessed as increase in cleaved PARP expression at 300 nM by Western blot analysis; format: functional, cell-based
[11] = target: Cyclin-dependent kinase 7 (Homo sapiens) (UniProt P50613); assay: Binding affinity to CDK7 in human MDA-MB-231 cells asssesed as thermal stabilization at 1 uM incubated for 8 hrs under 45 to 65 degreeC by Western blot analysis; format: cell-based
Sequence of Cyclin-dependent kinase 7 (Homo sapiens) (P50613 whole entry): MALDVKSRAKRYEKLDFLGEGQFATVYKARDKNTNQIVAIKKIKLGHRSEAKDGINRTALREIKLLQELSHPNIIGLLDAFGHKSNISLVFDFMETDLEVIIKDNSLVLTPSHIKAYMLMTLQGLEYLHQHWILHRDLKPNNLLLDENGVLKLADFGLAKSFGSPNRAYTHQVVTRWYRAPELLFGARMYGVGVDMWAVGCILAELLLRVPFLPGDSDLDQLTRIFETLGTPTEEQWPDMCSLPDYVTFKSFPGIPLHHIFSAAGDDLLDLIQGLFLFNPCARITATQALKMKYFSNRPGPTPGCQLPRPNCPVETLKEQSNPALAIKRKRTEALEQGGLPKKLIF

[12] = Toxicity in athymic BALB/c mouse implanted with mouse 4T1 cells assessed as kidney tissue damage at 12.5 to 25 mg/kg, ip administered for 14 days; format: organism-based; details: in vivo, 336 h, dose 12.5-25 mg/kg, time 14 day
MDA-MB-231 [13] = assay: Inhibition of colony formation in human MDA-MB-231 cells at 20 nM incubated for 10 days in presence of olaparib by crystal violet staining based analysis; format: functional, cell-based; details: time 10.0 day
MDA-MB-231 [14] = assay: Induction of apoptosis in human MDA-MB-231 cells assessed as necrotic cells at 333 nM incubated for 72 hrs by Annexin V-FITC/PI staining based flow cytometry analysis (reference value: 0.49 %); format: functional
[15] = target: Cyclin-dependent kinase 7/ cyclin H (Homo sapiens) (UniProt P51946+P50613); assay: Inhibition of Flag-tagged CDK7(unknown origin)/Cyclin H (unknown origin) transfected in HEK293T cells at 1 to 3 uM incubated for 8 hrs by co-immunoprecipitation assay; format: cell-based; details: dose 1-3 µM
MDA-MB-231 [16] = assay: Induction of apoptosis in human MDA-MB-231 cells assessed as reduction in Bcl2 level incubated for 24 hrs by Western blot analysis; format: functional, cell-based; details: dose 37-1000 nM
MDA-MB-231 [17] = assay: Induction of apoptosis in human MDA-MB-231 cells assessed as viable cells at 1000 nM incubated for 72 hrs by Annexin V-FITC/PI staining based flow cytometry analysis (reference value: 94.81 %); format: functional; details: read-out: Activity
[18] = Toxicity in mouse assessed as animal death at 62.5 to 500 mg/kg, ip administered for 16 days; format: organism-based; details: in vivo, 384 h, dose 62.5-500 mg/kg, time 16 day
[19] = Toxicity in athymic BALB/c mouse implanted with mouse 4T1 cells assessed as reduction in tolerance at 12.5 mg/kg, ip administered for 14 days; format: organism-based; details: in vivo, 336 h, time 14 day
MDA-MB-231 [20] = assay: Effect on Mcl-1 protein expression in human MDA-MB-231 cells transfected with shCDK9 at 300 nM by Western blot analysis; format: functional, cell-based
MDA-MB-231 [21] = assay: Induction of apoptosis in human MDA-MB-231 cells assessed as necrotic cells at 37 nM incubated for 72 hrs by Annexin V-FITC/PI staining based flow cytometry analysis (reference value: 0.49 %); format: functional
MDA-MB-231 [22] = assay: Induction of apoptosis in human MDA-MB-231 cells assessed as necrotic cells at 1000 nM incubated for 72 hrs by Annexin V-FITC/PI staining based flow cytometry analysis (reference value: 0.49 %); format: functional
4T1 [23] = assay: Antitumor activity against mouse 4T1 cells implanted in athymic BALB/c mouse assessed as tumor inhibition rate at 25 mg/kg, ip administered for 14 days relative to control; format: functional; details: 4T1, 336 h, time 14 day
4T1 [24] = assay: Antitumor activity against mouse 4T1 cells implanted in athymic BALB/c mouse assessed as increase in cleaved PARP at 12.5 to 25 mg/kg, ip administered once daily for 14 days by Western blot analysis; format: functional, organism-based; details: dose 12.5-25 mg/kg, time 14.0 day
4T1 [25] = assay: Antitumor activity against mouse 4T1 cells implanted in athymic BALB/c mouse assessed as reduction in tumor weight at 12.5 to 25 mg/kg, ip administered for 14 days; format: functional, organism-based; details: dose 12.5-25 mg/kg, time 14.0 day
4T1 [26] = assay: In vivo inhibition of RNA Pol II phosphorylation at ser2 in athymic BALB/c mouse implanted with mouse 4T1 cells at 12.5 to 25 mg/kg, ip administered once daily for 14 days by Western blot analysis; format: functional, organism-based; details: dose 12.5-25 mg/kg, time 14.0 day
4T1 [27] = assay: Antitumor activity against mouse 4T1 cells implanted in athymic BALB/c mouse assessed as tumor inhibition rate at 12.5 mg/kg, ip administered for 14 days relative to control; format: functional; details: 4T1, 336 h, time 14 day
[28] = target: Cyclin-dependent kinase 1 (Homo sapiens) (UniProt P06493); assay: Binding affinity to CDK1 in human MDA-MB-231 cells asssesed as thermal stabilization at 1 uM incubated for 8 hrs under 45 to 65 degreeC by Western blot analysis; format: cell-based
Sequence of Cyclin-dependent kinase 1 (Homo sapiens) (P06493 whole entry, looked up): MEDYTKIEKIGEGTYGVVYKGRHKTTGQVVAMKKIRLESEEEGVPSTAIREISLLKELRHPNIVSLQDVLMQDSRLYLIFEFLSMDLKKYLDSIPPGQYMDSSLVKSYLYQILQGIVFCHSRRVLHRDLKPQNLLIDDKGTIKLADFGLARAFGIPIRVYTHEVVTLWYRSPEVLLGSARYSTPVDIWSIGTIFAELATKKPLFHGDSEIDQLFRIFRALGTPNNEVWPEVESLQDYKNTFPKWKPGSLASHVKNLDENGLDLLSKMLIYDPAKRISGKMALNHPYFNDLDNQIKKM

[29] = Toxicity in mouse assessed as lethal dose administered intraperitoneally for 16 days by Karber's method; details: in vivo, route ip, time 16 day
[30] = Half life in Sprague-Dawley rat at 50 mg/kg, ip measured afer 24 hrs by LC-MS/MS analysis; format: ADME, organism-based; details: in vivo
4T1 [31] = assay: Antitumor activity against mouse 4T1 cells implanted in athymic BALB/c mouse assessed as reduction in tumor volume at 12.5 to 25 mg/kg, ip administered for 14 days; format: functional, organism-based; details: dose 12.5-25 mg/kg, time 14.0 day
MDA-MB-231 [32] = assay: Inhibition of RNA Polymerase II CTD phosphorylation at ser2 residue in human MDA-MB-231 cells at 1 uM incubated for 24 hrs by Western blotting analysis; format: cell-based
MDA-MB-231 [33] = assay: Induction of apoptosis in human MDA-MB-231 cells assessed as viable cells at 333 nM incubated for 72 hrs by Annexin V-FITC/PI staining based flow cytometry analysis (reference value: 94.81 %); format: functional; details: read-out: Activity
MDA-MB-231 [34] = assay: Induction of apoptosis in human MDA-MB-231 cells assessed as increase in cleaved PARP-1 protein incubated for 24 hrs by Western blotting analysis; format: functional, cell-based; details: dose 37-1000 nM

Structure (SMILES): COc1ccc(C(=O)Nc2cc(-c3ccnc(N4CCC(O)CC4)c3)ccn2)cc1
- inhibition (INH) (MDA-MB-231 [1]): ~100%
- IC50 at 72 h [2]: 498 nM
- Activity [3]: Non-Toxic
- MRT last at 24 h [4]: 1.26 h
- Activity [5]: Non-Toxic
- Activity [6]: Non-Toxic
- inhibition (MDA-MB-231 [7]): inactive
- Activity (MDA-MB-231 [8]): 71.6%
- AUC(0-t) at 24 h [9]: 17000 ng·h/mL
- Activity (MDA-MB-231 [10]): inactive
- Activity [11]: inactive
- Activity [12]: Non-Toxic
- inhibition (MDA-MB-231 [13]): Active
- Activity (MDA-MB-231 [14]): 0.25%
- inhibition [15]: inactive
- Activity (MDA-MB-231 [16]): Dose-Dependent Effect
- viability at 1 µM (MDA-MB-231 [17]): 14.2%
- Activity [18]: Non-Toxic
- Activity [19]: Non-Toxic
- Activity (MDA-MB-231 [20]): inactive
- Activity (MDA-MB-231 [21]): 0.17%
- Activity (MDA-MB-231 [22]): 0%
- inhibition in vivo at 25 mg/kg (4T1 [23]): 86.1%
- Activity (4T1 [24]): Active
- Activity (4T1 [25]): Active
- inhibition (4T1 [26]): Active
- inhibition in vivo at 12.5 mg/kg (4T1 [27]): 63.1%
- Activity [28]: inactive
- LD50 at 384 h [29]: 537 mg/kg
- half-life [30]: 1.67 h
- Activity (4T1 [31]): Active
- inhibition (MDA-MB-231 [32]): Active
- viability at 0.333 µM (MDA-MB-231 [33]): 30.8%
- Activity (MDA-MB-231 [34]): Dose-Dependent Effect

Source: ChEMBL document CHEMBL5634134, “Design, synthesis, and biological evaluation of novel 4,4'-bipyridine derivatives acting as CDK9-Cyclin T1 protein-protein interaction inhibitors against triple-negative breast cancer” (Eur J Med Chem, 2023)
